According to patent US9206423B2, “Methods of modulating compliance of the trabecular meshwork” (The Regents of the University of California, priority 2012, dated 2015):
“Also recorded” adds a separate entry of the source. Marks after values point to notes of the source that are not given here.

Tests used:
Format in all cases: cell-based, human
14-3-3σ mRNA = assay: Relative quantitative PCR for 14-3-3σ mRNA in primary HTM cells on hydrogels or TCP after Lat-B; conditions: for Relative quantification of 14-3-3σ mRNA (mean ± SEM): 2 μM Lat-B, 1 h after treatment, TCP DMSO = 1.0; for 14-3-3σ mRNA expression versus DMSO: HTM 424 donor (FIG. 11); for level of 14-3-3σ mRNA: Example 3 (FIG. 16)
Method: (§1) Hydrogel Fabrication. Polyacrylamide hydrogels mimicking the stiffness of the normal (5 kPa) and glaucomatous (75 kPa) HTM were prepared utilizing previously described procedures (McKee et al., 2011; Wood et al., 2011b). Briefly, hydrogels were fabricated and then sterilized with ultraviolet light and rinsed every 24 hours for at least 72 hours in Dulbecco's phosphate buffered solution (DPBS, Hyclone, Logan, Utah) to fully hydrate the hydrogels and to ensure removal of monomeric acrylamide since free acrylamide has been previously shown to disrupt cytoskeletal structure (Arocena, 2006). Following hydration, the hydrogels (10 mm) were adhered to TCP, stored in HTM cell medium, DME/F-12 medium containing 2.5 mM L-glutamine supplemented with 1% penicillin-streptomycin with amphotericin b (Lonza, Walkerville, Md.) and 10% fetal bovine serum (Atlanta Biologicals, Lawrence, Ga.), for 24 hrs and coated with a proprietary fibronectin/collagen (FNC) mixture (AthenaES, Baltimore, Md.) for 20 minutes. The elastic modulus of the hydrogels used were previously validated with atomic force microscopy at 4±2 kPa and 71±5 kPa for the 5 and 75 kPa gels respectively (McKee et al., 2011; Radmacher et al., 1992).
(§2) HTM Cell Isolation and Culture. Primary HTM cells were isolated from corneoscleral rims considered unsuitable for transplant from donors with no prior history of ophthalmic disease as previously described (McKee et al., 2011; Rhee et al., 2003; Wood et al., 2011b). Isolated cells were cultured in HTM cell medium and all studies were conducted using cells prior to the eighth passage. HTM cells were plated at a density of 1.5 ×105 on FNC-coated TCP and 75 kPa hydrogels and 2.5×105 on FNC-coated 5 kPa hydrogels for 24 h prior to Lat-B treatment. The 5 kPa hydrogels were plated a higher density than the other substrates because HTM cells proliferate more slowly on the 5 kPa hydrogels (Wood et al., 2011a), and to ensure that there was enough mRNA present to perform PCR.
(§3) Latrunculin-B Treatment. Lyophilized Lat-B (Cal Biochem, La Jolla, Calif.) was re-suspended to a final concentration of 2.5 mM in dimethyl sulfoxide (DMSO) (Fisher, Pittsburgh, Pa.). Fresh solutions of 2.0 μM Lat-B were prepared in serum free DPBS for all experiments. Control samples were treated with an equivalent concentration of DMSO in serum free DPBS.
(§4) RNA Extraction and Quantitative Real-Time PCR. One hour after treatment with Lat-B or DMSO, RNA was extracted using the Qiagen RNeasy kit following the manufacturer's protocol (Qiagen, Valencia, Calif.). […] The cycle threshold (Ct) ranges were 11-22 for 18S, 23-27 for YAP, 23-34 for WWTR1, 27-32 for 14-3-3σ, 21-30 for CTGF and 17-23 for PAI-1. The 18S ribosomal RNA served as a reference. […] In order to control for slight variations in the amount of RNA loaded into the PCR reactions, the difference in cycle threshold (ΔCt) between the gene of interest (e.g. YAP) and the average cycle threshold (Ct) of the house keeping gene, 18S (ran in triplicate) were calculated. By calculating the difference in ΔCt between an experimental condition and the control condition (TCP DMSO), the experimental data was normalized to the control data. Ratios with respect to this control were calculated for all other values. The protein TAZ is encoded by the WWTR1 gene, for ease of reading, the mRNA obtained from the WWTR1 gene is designated as TAZ mRNA.

YAP = YAP immunofluorescence, nuclear/cytoplasmic localization in HTM cells after Lat-B; conditions: Lat-B vs DMSO, one hour after treatment
Method: Fixation and Immunofluoresence. One hour after treatment with Lat-B or DMSO, the cells were rinsed twice with warm DPBS and fixed in warm DPBS with 4% paraformaldehyde (Sigma-Aldrich, St. Louis, Mo.) for 20 min. They were rinsed twice more and permeabilized in DPBS with 0.5% Triton-X100 (Sigma-Aldrich, St. Louis, Mo.). They were rinsed and stored in DPBS until staining Rabbit anti-YAP (H-125, Santa Cruz Biotechnology, Santa Cruz, Calif.) was diluted in PBS containing 0.2% A-type cold fish gelatin (Sigma-Aldrich, St. Louis, Mo.) as a blocking agent. After primary staining, cells were rinsed twice in PBS. Dylight 594-conjugated goat anti-rabbit IgG (Thermo Scientific Pierce, Rockford, Ill.) was similarly diluted. After secondary staining, the cells were again rinsed, counterstained with DAPI (Life Technologies, Carlsbad, Calif.), rinsed a final time, and stored in PBS for imaging. Cells were imaged on an Axiovert 200 M (Carl Zeiss AG, Oberkochen, Germany) inverted microscope with a 20× objective. To mitigate background signal, images were filtered with a 77.5 μm rolling ball background and local median filtering (ImageJ, NIH, Bethesda, Md.).

myocilin (MYOC) mRNA = assay: Myocilin mRNA in HTM cells on hydrogels or TCP after Lat B
Method: (§5) Materials and methods similar to those in Examples 1 and 2 were used. Alternatively or additionally, at least some of the following methods were or can be used for the experiments described hereafter.
(§6) Cell Culture. Primary HTM cells is obtained from normal human donor corneoscleral rims deemed not suitable for transplant (50). HTM cells are cultured in DMEM/F12 medium with 10% fetal bovine serum. Only cells before the 7th passage are used to conduct these studies. Only normal HTM cells are used because growth of cells from glaucomatous HTM is generally not robust enough to guarantee a successful completion of the experiment (51-54). Cells are plated onto hydrogels with Young's moduli of 5 kPa (homeomimetic) or 75 kPa (pathomimetic) that are fabricated to fit in a single well of a standard 6 well culture plate with 300,000 cells per surface. The cells are allowed to attach to the surfaces for 24 hours prior to subsequent experimentation.
(§7) Fabrication of Hydrogel Substrates. Hydrogels are composed of 5.8% acrylamide/0.2% bisacrylamide (5 kPa) or 17.4% acrylamide/0.6% bisacrylamide (75 kPa). Each of the gels contains 4% (v/v) acrylamidoisopropyl trimethyl ammonium chloride. After polymerization, the gels are stored in phosphate buffered saline for two days to allow maximal swelling. One day prior to seeding of the cells on the hydrogels, culture medium with 10% fetal bovine serum is added to the gel to allow the hydrogel to be coated with the various proteins and components present in the serum. The Young's moduli of the hydrogels have been validated by atomic force microscopy (14, 55).
(§8) Real-Time PCR. Real-time PCR is conducted with 70 ng of mRNA using a StepOne PCR machine. Reverse transcription is done for 30 minutes at 50° C. and subsequent PCR is done for 40 cycles of 15 seconds at 95° C. and 1 minute at 60° C.

CTGF mRNA = assay: qPCR for CTGF mRNA in primary HTM cells after Lat-B; conditions: stiff (75 kPa) hydrogels, 3 donors, p=0.02
Method: (§9) Hydrogel Fabrication. Polyacrylamide hydrogels mimicking the stiffness of the normal (5 kPa) and glaucomatous (75 kPa) HTM were prepared utilizing previously described procedures (McKee et al., 2011; Wood et al., 2011b). Briefly, hydrogels were fabricated and then sterilized with ultraviolet light and rinsed every 24 hours for at least 72 hours in Dulbecco's phosphate buffered solution (DPBS, Hyclone, Logan, Utah) to fully hydrate the hydrogels and to ensure removal of monomeric acrylamide since free acrylamide has been previously shown to disrupt cytoskeletal structure (Arocena, 2006). […]
(§10) RNA Extraction and Quantitative Real-Time PCR. […] In order to control for slight variations in the amount of RNA loaded into the PCR reactions, the difference in cycle threshold (ΔCt) between the gene of interest (e.g. YAP) and the average cycle threshold (Ct) of the house keeping gene, 18S (ran in triplicate) were calculated. […] Ratios with respect to this control were calculated for all other values. The protein TAZ is encoded by the WWTR1 gene, for ease of reading, the mRNA obtained from the WWTR1 gene is designated as TAZ mRNA.

SPARC mRNA = SPARC mRNA in HTM cells on hydrogels or TCP after Lat B
Method: as §5, §6, §7, §8

YAP mRNA = assay: Relative quantitative PCR for YAP mRNA in primary HTM cells on hydrogels or TCP after Lat-B; conditions: for Relative quantification of YAP mRNA (mean ± SEM): 2 μM Lat-B, 1 h after treatment, TCP DMSO = 1.0; for YAP mRNA expression versus DMSO: HTM 424 donor (FIG. 8)
Method: as §1, §2, §3, §4

PAI-1 mRNA = assay: qPCR for PAI-1 mRNA in primary HTM cells after Lat-B; conditions: 75 kPa hydrogels, all 3 donors
Method: as §9, §10

TAZ mRNA = assay: qPCR for TAZ (WWTR1) mRNA in primary HTM cells after Lat-B
Method: as §9, §10

[1] = homeo- and pathomimetic hydrogels, Lat B 30 minutes, seven hours recovery, listed as Lat B
[2] = homeo- and pathomimetic hydrogels, Lat B 30 minutes, seven hours recovery, listed as Latrunculin B
[3] = tissue culture plastic (GPa), after Lat B treatment
[4] = HTM cells after Lat B treatment (Example 3)

SMILES: C/C1=C/C(=O)O[C@@H]2C[C@@H](CC[C@H](C)/C=C\CC1)O[C@@](O)([C@@H]1CSC(=O)N1)C2 [Lat-B, Latrunculin-B]
- Relative quantification of 14-3-3σ mRNA (mean ± SEM) (14-3-3σ mRNA; HTM 211 cells, 5 kPa hydrogel): 15 ± 0.82^a
- Relative quantification of 14-3-3σ mRNA (mean ± SEM) (14-3-3σ mRNA; HTM 211 cells, 75 kPa hydrogel): 29 ± 1.8^b, †
- Relative quantification of 14-3-3σ mRNA (mean ± SEM) (14-3-3σ mRNA; HTM 211 cells, TCP (>1 GPa)): 1.2 ± 0.25^c
- Relative quantification of 14-3-3σ mRNA (mean ± SEM) (14-3-3σ mRNA; HTM 424 cells, 5 kPa hydrogel): 4.8 ± 0.12^a, †
- Relative quantification of 14-3-3σ mRNA (mean ± SEM) (14-3-3σ mRNA; HTM 424 cells, 75 kPa hydrogel): 5.6 ± 0.51^a, †
- Relative quantification of 14-3-3σ mRNA (mean ± SEM) (14-3-3σ mRNA; HTM 424 cells, TCP (>1 GPa)): 0.73 ± 0.20^b ^
- Relative quantification of 14-3-3σ mRNA (mean ± SEM) (14-3-3σ mRNA; HTM 431 cells, 5 kPa hydrogel): 1.09 ± 0.02^a ^
- Relative quantification of 14-3-3σ mRNA (mean ± SEM) (14-3-3σ mRNA; HTM 431 cells, 75 kPa hydrogel): 1.57 ± 0.11^b, †
- Relative quantification of 14-3-3σ mRNA (mean ± SEM) (14-3-3σ mRNA; HTM 431 cells, TCP (>1 GPa)): 0.53 ± 0.02^c, †
- 14-3-3σ mRNA expression versus DMSO (14-3-3σ mRNA; cells grown on TCP): did not have significantly different
- 14-3-3σ mRNA expression versus DMSO (14-3-3σ mRNA; cells grown on hydrogels): significantly more
- level of 14-3-3σ mRNA (14-3-3σ mRNA; softer (homeomimetic) hydrogels): no effect
- level of 14-3-3σ mRNA (14-3-3σ mRNA; stiffer (pathomimetic) hydrogels, listed as Lat B): increased
- level of 14-3-3σ mRNA (14-3-3σ mRNA; stiffer (pathomimetic) hydrogels, listed as Latrunculin B): doubled
- 14-3-3σ expression versus DMSO (14-3-3σ mRNA; stiffer hydrogels, all three donors (HTM 211, 424, 431)): markedly increased
- YAP in the nucleus (nuclear localization) (YAP; 5 kPa hydrogel): dramatic reduction
- YAP nuclear localization (YAP; TCP): some nuclear localization remained
- MYOC mRNA levels (myocilin (MYOC) mRNA; [1]): significantly reduced
- MYOC mRNA levels (myocilin (MYOC) mRNA; [2]): significantly decreased
- MYOC mRNA levels (myocilin (MYOC) mRNA; [3]): no change
- CTGF mRNA expression versus DMSO (CTGF mRNA): significantly decreased; also recorded: significantly less
- SPARC mRNA levels (SPARC mRNA; [1]): significantly reduced
- SPARC mRNA levels (SPARC mRNA; [2]): significantly decreased
- SPARC mRNA levels (SPARC mRNA; [3]): no change
- YAP mRNA versus DMSO (YAP mRNA; 75 kPa hydrogels, one hour after treatment, all three donors, p<0.05): significantly less
- Relative quantification of YAP mRNA (mean ± SEM) (YAP mRNA; HTM 211 cells, 5 kPa hydrogel): 0.33 ± 0.01^a ^
- Relative quantification of YAP mRNA (mean ± SEM) (YAP mRNA; HTM 211 cells, 75 kPa hydrogel): 0.06 ± 0.01^b, †
- Relative quantification of YAP mRNA (mean ± SEM) (YAP mRNA; HTM 211 cells, TCP (>1 GPa)): 0.48 ± 0.0^c, †
- Relative quantification of YAP mRNA (mean ± SEM) (YAP mRNA; HTM 424 cells, 5 kPa hydrogel): 0.79 ± 0.06^a, †
- Relative quantification of YAP mRNA (mean ± SEM) (YAP mRNA; HTM 424 cells, 75 kPa hydrogel): 0.59 ± 0.05^a, †
- Relative quantification of YAP mRNA (mean ± SEM) (YAP mRNA; HTM 424 cells, TCP (>1 GPa)): 1.3 ± 0.39^a
- Relative quantification of YAP mRNA (mean ± SEM) (YAP mRNA; HTM 431 cells, 5 kPa hydrogel): 1.6 ± 0.01^a, †
- Relative quantification of YAP mRNA (mean ± SEM) (YAP mRNA; HTM 431 cells, 75 kPa hydrogel): 0.83 ± 0.05^b, †
- Relative quantification of YAP mRNA (mean ± SEM) (YAP mRNA; HTM 431 cells, TCP (>1 GPa)): 0.55 ± 0.02^c, †
- decrease of YAP mRNA levels (YAP mRNA; [4]): 1.8 fold
- YAP mRNA expression versus DMSO (YAP mRNA; cells grown on TCP): did not have significantly different
- YAP mRNA expression versus DMSO (YAP mRNA; cells grown on hydrogels): significantly less
- PAI-1 mRNA expression versus DMSO (PAI-1 mRNA): less and decreased
- decrease of TAZ mRNA levels (TAZ mRNA; [4]): 1.9 fold
- TAZ mRNA versus DMSO (TAZ mRNA; stiff (75 kPa) hydrogels, 3 donors, P=0.11): trend towards less; also recorded: markedly less
